# Experimental data published in patent US6069128A, “Transiently membrane-permeable derivatives converted intracellularly into active peptides” (Universite Laval, priority 1998, dated 2000).
# Where no end group is shown, it is not given here.
# Tested on: IL-8-induced leukocyte migration
# Test: IL-8-induced leukocyte migration into the mouse air pouch
# Type: in vivo
# Details: BALBc mice; 100 μg peptide intravenously in the tail one hour before subdermal IL-8 (1 μg); leukocytes collected two and a half hours after IL-8
# Method: In the second series of experiments, inhibition of leukocyte migration in BALBc mice was chosen as an in vivo assay as a first step towards the use of the modified peptides in humans. 100 ug of the DRYLAIVHAT/AM peptide, diluted in cyclodextrane or polythelene glycol, was injected intravenously in the tails of BALBc mice one hour prior to the subdermal injection of IL-8. In the presence of the modified peptide, leukocyte migration was inhibited when compared to the migration observed in untreated animals (FIG. 4).
# In FIG. 4, the peak increase in leukocyte migration induced by IL-8 is shown. The peptides (100 μg) (native or transformed) were injected intravenously in the tails of the BALBC mice one hour prior to IL-8 injection. The basal cell number was 0.25×10^6 cells and the increases represent the differences between the basal and the peak levels of the leukocytes collected two and a half hours after IL-8 stimulation. The data represent the mean ±SEM of the number of experiments indicated in parenthesis.
substance,measurement,value
DRYLAIVHAT/AM: acetoxymethyl ester (AM) membrane-permeable derivative of the peptide from the second intracellular loop of the interleukin 8 type A receptor (also: acetoxymethyl ester (AM) derivative),inhibition of leukocyte migration induced by IL-8,inhibited
